Assay results as given in patent publication US20230121325A1, “FAST DISSOLVING PHARMACEUTICAL COMPOSITIONS” (XSPRAY PHARMA AB, priority 2021, published 2023).

Columns and labels:
[1] = within and between patients; cited from earlier work
[2] = Food effect analysis of Test Formulation (Fasted Study vs Fed Study); format: in vivo, human; conditions: Test Formulation single dose, least-squares geometric mean
Procedure: Objective: The objective of this analysis was to investigate the effect of food on the single-dose PK of Test Formulation using fasted and fed PK data from two studies, referred to as “Fasted Study” and “Fed Study,” respectively below.
Methodology. Since the PK parameters following the oral administration of Test Formulation in fasting and fed conditions were obtained from two different studies (Fasted Study and Fed Study, respectively), the PK data were analyzed using an analysis of variance (ANOVA), which considered the data as if they were collected in a parallel design.
Both studies were fully replicate studies and therefore subjects were dosed with Test Formulation on two occasions. The PK population in this analysis included subjects who received Test Formulation on two occasions; subjects who received Test Formulation only once were not included in this analysis.
In the current analysis, data from the PK population of the Fasted Study and Fed Study were considered “Reference” Treatment and “Test” Treatment, respectively.
For each parameter, the value used for the subject was the geometric mean of the two values that were available for each subject. The use of geometric means is consistent with the assumption that PK parameters are In normally distributed. Subjects with only one period of data were not included in the ANOVA, as this would incorrectly imply that singular data have the same weight as subjects with replicate values for the parameter.
In the Fasted Study, 51 subjects received Test Formulation on at least one occasion under fasting conditions, of whom 44 received Test Formulation on both occasions.
In the Fed Study, 32 subjects received Test Formulation on at least one occasion under fed conditions, of whom 27 received Test Formulation on both occasions.

clinical = conditions: human, in vivo, 90 mg

AUC(0-24 h) LSmeans Fed ([2]; fed (n = 27)): 413 ng·h/mL | AUC(0-t) ([2]; human, plasma, oral, fasting (n = 44), read-out: AUC(0-24 h) LSmeans Fasted): 433 ng·h/mL | AUC(0-inf) ([2]; human, plasma, oral, fasting (n = 44), read-out: AUC(0-∞) LSmeans Fasted): 446 ng·h/mL | Cmax ([2]; human, plasma, oral, fasting (n = 44), read-out: Cmax LSmeans Fasted): 127 ng/mL | AUC(0-inf) ([2]; human, plasma, oral, fed (n = 27), read-out: AUC(0-∞) LSmeans Fed): 431 ng·h/mL | Cmax ([2]; human, plasma, oral, fed (n = 27), read-out: Cmax LSmeans Fed): 67 ng/mL | AUC(0-inf) (clinical): 434 ng·h/mL | Cmax (clinical): 138 ng/mL
SMILES: Cc1nc(Nc2ncc(C(=O)Nc3c(C)cccc3Cl)s2)cc(N2CCN(CCO)CC2)n1 [Dasatinib, dasatinib]
coefficient of variation of AUC [1]: up to 100% | coefficient of variation of Cmax [1]: up to 100%
